Measured values: the supplement of paper PMC11451515

Tested on: NOMO1
Test: cell viability relative to DMSO control; higher = less cytotoxic
Settings: 48 h
Outline: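 NOMO1, SEM and P12-Ichikawa leukemia cells spent at least four passages adapting to each medium before use. They were seeded at 500 cells/well (NOMO1, SEM) or 1000 cells/well (P12-Ichikawa) in 5 μl in 1536-well plates and pin-dosed with library compounds in DMSO at 11 threefold steps from 47 μM down to 0.79 nM. After 48 h at 37°C, CellTiter-Glo One luminescence was read. Viability is reported as a percentage of the DMSO wells on each plate, with cell-free wells as background.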

[1] = HPLM + 10% dialyzed FBS, 0.000781 µM
[2] = HPLM + 10% dialyzed FBS, 0.00234 µM
[3] = HPLM + 10% dialyzed FBS, 0.00702 µM
[4] = HPLM + 10% dialyzed FBS, 0.0211 µM
[5] = HPLM + 10% dialyzed FBS, 0.0632 µM
[6] = HPLM + 10% dialyzed FBS, 0.19 µM
[7] = HPLM + 10% dialyzed FBS, 0.569 µM
[8] = HPLM + 10% dialyzed FBS, 1.71 µM
[9] = HPLM + 10% dialyzed FBS, 5.12 µM
[10] = HPLM + 10% dialyzed FBS, 15.4 µM
[11] = HPLM + 10% dialyzed FBS, 46.1 µM
[12] = RPMI 5 mM glucose + 10% FBS, 0.000781 µM
[13] = RPMI 5 mM glucose + 10% FBS, 0.00234 µM
[14] = RPMI 5 mM glucose + 10% FBS, 0.00702 µM
[15] = RPMI 5 mM glucose + 10% FBS, 0.0211 µM
[16] = RPMI 5 mM glucose + 10% FBS, 0.0632 µM
[17] = RPMI 5 mM glucose + 10% FBS, 0.19 µM
[18] = RPMI 5 mM glucose + 10% FBS, 0.569 µM
[19] = RPMI 5 mM glucose + 10% FBS, 1.71 µM
[20] = RPMI 5 mM glucose + 10% FBS, 5.12 µM
[21] = RPMI 5 mM glucose + 10% FBS, 15.4 µM
[22] = RPMI 5 mM glucose + 10% FBS, 46.1 µM
[23] = RPMI 5 mM glucose + 10% dialyzed FBS, 0.000781 µM
[24] = RPMI 5 mM glucose + 10% dialyzed FBS, 0.00234 µM
[25] = RPMI 5 mM glucose + 10% dialyzed FBS, 0.00702 µM
[26] = RPMI 5 mM glucose + 10% dialyzed FBS, 0.0211 µM
[27] = RPMI 5 mM glucose + 10% dialyzed FBS, 0.0632 µM
[28] = RPMI 5 mM glucose + 10% dialyzed FBS, 0.19 µM
[29] = RPMI 5 mM glucose + 10% dialyzed FBS, 0.569 µM
[30] = RPMI 5 mM glucose + 10% dialyzed FBS, 1.71 µM
[31] = RPMI 5 mM glucose + 10% dialyzed FBS, 5.12 µM
[32] = RPMI 5 mM glucose + 10% dialyzed FBS, 15.4 µM
[33] = RPMI 5 mM glucose + 10% dialyzed FBS, 46.1 µM

SMILES | cell viability [1] | cell viability [2] | cell viability [3] | cell viability [4] | cell viability [5] | cell viability [6] | cell viability [7] | cell viability [8] | cell viability [9] | cell viability [10] | cell viability [11] | cell viability [12] | cell viability [13] | cell viability [14] | cell viability [15] | cell viability [16] | cell viability [17] | cell viability [18] | cell viability [19] | cell viability [20] | cell viability [21] | cell viability [22] | cell viability [23] | cell viability [24] | cell viability [25] | cell viability [26] | cell viability [27] | cell viability [28] | cell viability [29] | cell viability [30] | cell viability [31] | cell viability [32] | cell viability [33]
CC(=O)O[C@@]12CO[C@@H]1C[C@H](O)[C@]3(C)[C@@H]2[C@H](OC(=O)C4=CC=CC=C4)[C@]5(O)C[C@H](O)/C(=C(/[C@@H](O)C3=O)C5(C)C)C | 109% | 133% | 123% | 122% | 130% | 131% | 114% | 121% | 117% | 36.1% | 29.1% | 98.1% | 112% | 111% | 116% | 118% | 108% | 105% | 113% | 109% | 51.8% | 13.3% | 89.8% | 92.8% | 106% | 121% | 113% | 114% | 106% | 111% | 115% | 45.1% | 19.3%
COC(=O)[C@@H]1CC2=CC(=O)CC[C@]2(C)[C@@]23O[C@@H]2C[C@@]2(C)[C@@H](CC[C@@]24CCC(=O)O4)[C@H]13 | 93.6% | 115% | 107% | 121% | 116% | 133% | 122% | 136% | 124% | 123% | 119% | 95.3% | 91.4% | 112% | 106% | 104% | 110% | 116% | 105% | 109% | 102% | 112% | 105% | 121% | 113% | 121% | 110% | 108% | 123% | 141% | 125% | 116% | 120%
COc1cc([C@@H]2c3cc4c(cc3[C@@H](O)C3COC(=O)C32)OCO4)cc(OC)c1O (some centres undefined) | 88.8% | 100% | 101% | 37% | 94.3% | 53.1% | 37.9% | 45.9% | 30.5% | 30.3% | 28.2% | 81.3% | 95.6% | 85.7% | 17.6% | 92% | 82.7% | 20.5% | 22.1% | 19.7% | 20.3% | 19.6% | 88.1% | 95.3% | 91.5% | 32.1% | 90.8% | 73.3% | 25.7% | 26.2% | 22.9% | 23% | 22.3%
CN1C(=O)\C(=C/C2=C1N=C(NC3CCOCC3)N=C2)OC4=C(F)C=C(F)C=C4 | 105% | 107% | 105% | 101% | 119% | 100% | 91% | 96.4% | 58.2% | 89.2% | 16.4% | 95.4% | 83.2% | 88.4% | 90.6% | 94.1% | 87.2% | 87.2% | 95.2% | 79.2% | 84% | 23.3% | 86.7% | 97.1% | 104% | 89.2% | 83.5% | 87.1% | 95.5% | 91.4% | 76.7% | 86.3% | 26.4%
NC(=O)c1ncn([C@@H]2O[C@H](CO)[C@@H](O)[C@H]2O)c1N | 127% | 111% | 96% | 136% | 111% | 121% | 123% | 123% | 126% | 115% | 83% |  |  |  |  |  |  |  |  |  |  |  |  |  |  |  |  |  |  |  |  |  | 
CC(=O)OCC(CCn1cnc2cnc(N)nc21)COC(C)=O | 80% | 105% | 89.9% | 98.4% | 102% | 113% | 102% | 120% | 112% | 103% | 101% | 91.7% | 101% | 92.8% | 93.1% | 93.9% | 106% | 98.9% | 108% | 104% | 94.2% | 92.7% | 92.4% | 91.3% | 104% | 93% | 89.9% | 112% | 100% | 101% | 99.9% | 108% | 90.3%
Cc1nc(C(=O)NCC(=O)O)c(O)c2ccc(Oc3ccccc3)cc12 | 106% | 113% | 113% | 119% | 113% | 116% | 104% | 101% | 118% | 97.4% | 107% | 99.4% | 105% | 95.7% | 87.2% | 94.5% | 104% | 86.6% | 94.9% | 84.5% | 102% | 92.5% | 84.4% | 85.3% | 108% | 105% | 116% | 98.2% | 96.2% | 94.9% | 82.2% | 104% | 99.4%
CC[C@@H](C)[C@H](NC(=O)[C@H](CC1CCCCC1)NC(=O)c1ccno1)C(=O)N1CCC2(CCc3ccccc32)CC1 | 85.9% | 90.6% | 86.1% | 78.9% | 108% | 97.3% | 75.9% | 66.1% | 79.2% | 81.7% | 69.9% | 80.1% | 88.6% | 81.1% | 79.9% | 77.1% | 78.3% | 89.1% | 81.9% | 84.6% | 74.4% | 72.2% | 84% | 85.4% | 84% | 77.9% | 87.6% | 82.4% | 76.2% | 69.8% | 82.6% | 73.7% | 83.2%
OC[C@H]1O[C@H](C[C@@H]1O)N2\C=C(\I)C(=O)NC2=O | 107% | 118% | 105% | 126% | 116% | 113% | 114% | 125% | 105% | 91.3% | 79.2% | 112% | 120% | 110% | 113% | 120% | 116% | 127% | 119% | 129% | 115% | 88.6% | 103% | 118% | 114% | 117% | 132% | 117% | 133% | 104% | 97.1% | 98.5% | 86.2%
O=C(Nc1cccc2c(=O)cc(-c3nnn[nH]3)oc12)c1ccc(OCCCCc2ccccc2)cc1 | 75.4% | 80.8% | 104% | 107% | 100% | 110% | 94.1% | 102% | 95% | 83.9% | 8.37% | 73.4% | 81.2% | 85.2% | 84.6% | 84.4% | 93.7% | 90.1% | 88.6% | 79% | 81.5% | 10.5% | 82.8% | 95.1% | 91.7% | 97.5% | 94.1% | 88.9% | 94.4% | 83.3% | 80.3% | 73.7% | 22.8%
CC(C)N(CCCNC(=O)Nc1ccc(C(C)(C)C)cc1)C[C@H]1O[C@@H](n2cc(Br)c3c(N)ncnc32)[C@H](O)[C@@H]1O | 98.3% | 101% | 112% | 84.5% | 105% | 106% | 110% | 95.1% | 85.4% | 71.4% | 9.86% | 80% | 96.3% | 88.7% | 87.8% | 86% | 80.8% | 92.2% | 80.9% | 94.2% | 73.8% | 31.8% | 86.4% | 81.3% | 93.6% | 105% | 90.1% | 86.3% | 81.6% | 82.2% | 90.5% | 68.8% | 26.2%
CN1CCN(c2cc(C(=O)Nc3ccc4c(c3)-c3c(c(C(N)=O)nn3-c3ccc(F)cc3)CC4)c(Cl)cn2)CC1 | 123% | 106% | 108% | 113% | 114% | 127% | 113% | 103% | 99.4% | 85.9% | 1.35% | 108% | 102% | 111% | 109% | 109% | 107% | 112% | 106% | 109% | 97.4% | 2.41% | 116% | 108% | 121% | 102% | 117% | 107% | 93.4% | 100% | 99.9% | 102% | 2.16%
N[C@@H](Cc1cc(I)c(Oc2cc(I)c(O)c(I)c2)c(I)c1)C(=O)O | 119% | 109% | 105% | 103% | 111% | 109% | 125% | 94.5% | 112% | 104% | 97.4% | 92.9% | 105% | 107% | 100% | 101% | 97% | 108% | 105% | 93.6% | 112% | 84.8% | 109% | 116% | 113% | 113% | 94.1% | 95.5% | 96.9% | 98.9% | 94% | 96.8% | 92.6%
CCN(CC)CCNC(=O)c1ccc2nc(-c3ccccc3)c(-c3ccc(CN4CCC(n5c(=O)[nH]c6ccccc65)CC4)cc3)nc2c1 | 95.1% | 124% | 152% | 134% | 112% | 130% | 107% | 93.6% | 10.6% | 8.39% | 4.57% |  |  |  |  |  |  |  |  |  |  |  |  |  |  |  |  |  |  |  |  |  | 
CN(C)c1ccccc1CN1CCCN(Cc2ccccc2N(C)C)C1c1ccncc1 | 93.7% | 103% | 91.6% | 29.8% | 113% | 115% | 108% | 110% | 99.9% | 95.7% | 65.7% | 86.4% | 82.7% | 89.2% | 18.6% | 89.4% | 88% | 91.1% | 81.3% | 83.5% | 89.7% | 74.5% | 77.3% | 88.7% | 90.6% | 33.3% | 93% | 99.6% | 93.7% | 97.7% | 95.4% | 95% | 65%
NC(=O)[C@@H](CCC(F)(F)F)N(Cc1ccc(-c2ncon2)cc1F)[S+](=O)([O-])c1ccc(Cl)cc1 | 107% | 106% | 113% | 108% | 109% | 105% | 97.5% | 91.7% | 96.3% | 71% | 3.05% | 92.8% | 103% | 91.1% | 90.6% | 97.8% | 96.3% | 78.5% | 73.9% | 84.6% | 77.2% | 61% | 94.4% | 93% | 97.1% | 88.3% | 96.9% | 105% | 87% | 83.2% | 88.5% | 81.6% | 50.2%
